The values below come from the OPERA property sets (Mansouri et al. 2018).

The structures appear in SMILES notation. Converted amounts (≈) assume the structure as drawn.

Settings in the first data set: not given
Turning to `CCCCOC(=O)Nc1ccccc1`, the logP (as a rule, the decadic logarithm of the partition coefficient of the neutral form, usually between octanol and water) worked out at 3.3. As for `CNC(=O)Nc1cccc(Cl)c1`, the logP stood at 2.18. `CNC(=O)Nc1ccc(Cl)c(Cl)c1` gave a lipophilicity (logP) of 2.94. The molecule `CNC(=O)Nc1ccc(C)c(Cl)c1` came in with a logP of 2.61.

The molecule `COc1ccc(NC(N)=O)cc1Cl` returned a logP of 1.37.

As for `NC(=O)Nc1cccc(C(F)(F)F)c1`, the logP stood at 2.31. With `O=C(Nc1ccccc1)NC1CCCC1`, the logP was 2.65. As for `CCCOC(=O)Nc1ccccc1`, the logP is 2.8. As to `CON(C)C(=O)Nc1ccc(Br)cc1`, the logP came to 2.38. The molecule `COc1ccc(NC(=O)N(C)C)cc1` registered a logP of 0.83. The molecule `COc1cccc(NC(=O)N(C)C)c1` came in with a logP of 1.73. For `O=[N+]([O-])c1ccc(Br)c(Cl)c1`, the logP turned out to be 3.25.

The molecule `Cc1cc(NC(N)=O)ccc1F` yielded a logP of 1.59.

Still in this data set, the particulars now being: 25 °C.
With `CC(=O)Nc1cccc(C)c1`, the solubility (usually how much of the substance goes into solution per volume) stood at 8.11 mM (≈ 1210 µg/mL). Regarding `CC(=O)Nc1ccccc1Cl`, the solubility is 39.8 mM (≈ 6750 µg/mL).
